Measured values reported in patent US6420147B1, “Haloalkaliphilic microorganisms” (Genencor International, Inc., priority 1991, dated 2002).

How the values were obtained:
[1] = test system: Cluster 1 haloalkaliphilic bacteria; assay: Antibiotic sensitivity, distribution of positive characters; type: cell-based; settings: share of strains of cluster 1 (78.5% similarity level, SSM) scored positive = clear zone around antibiotic disk; Medium A agar, 37° C., up to 14 days
Description: (§1) A light suspension of bacteria in alkaline, saline, nutrient broth was spread on the surface of alkaline nutrient, saline agar (Medium A) and allowed to dry. Commercially available antibiotic susceptibility test disks (Oxoid or Mast Laboratories: Merseyside, U.K.) were applied to the agar surface. The bacteria were cultivated at 37° C. for up to 14 days. Clear zones around the antibiotic disks indicated sensitivity and were recorded as positive.

[2] = test system: Cluster 2 haloalkaliphilic bacteria; assay: as above; type: cell-based; settings: share of strains of cluster 2 (78.5% similarity level, SSM) scored positive = clear zone around antibiotic disk; Medium A agar, 37° C., up to 14 days
Description: as §1

[3] = test system: Cluster 3 haloalkaliphilic bacteria; assay: as above; type: cell-based, haloalkaliphilic eubacteria; settings: share of strains of cluster 3 (78.5% similarity level, SSM) scored positive = clear zone around antibiotic disk; Medium A agar, 37° C., up to 14 days
Description: as §1

[4] = test system: Cluster 4 haloalkaliphilic bacteria; assay: as above; type: cell-based, haloalkaliphilic eubacteria; settings: share of strains of cluster 4 (78.5% similarity level, SSM) scored positive = clear zone around antibiotic disk; Medium A agar, 37° C., up to 14 days
Description: as §1

Strain 931LM.4 = assay: Antibiotic sensitivity (susceptibility test disks on Medium A agar); type: cell-based; settings: antibiotic disks (contents in Appendix C), 37° C., up to 14 days
Description: as §1

Strain 95LM.4 = assay: as above; type: cell-based; settings: antibiotic disks (contents in Appendix C), 37° C., up to 14 days
Description: as §1

Strain 86M.4 = assay: as above; type: cell-based; settings: antibiotic disks (contents in Appendix C), 37° C., up to 14 days
Description: as §1

Strain 31M.4 = assay: as above; type: cell-based; settings: antibiotic disks (contents in Appendix C), 37° C., up to 14 days
Description: as §1

Strain 98Nt.4 = assay: as above; type: cell-based; settings: antibiotic disks (contents in Appendix C), 37° C., up to 14 days
Description: as §1

Strain 93dLM.4 = assay: as above; type: cell-based; settings: antibiotic disks (contents in Appendix C), 37° C., up to 14 days
Description: as §1

Strain 103Nt.4 = assay: as above; type: cell-based; settings: antibiotic disks (contents in Appendix C), 37° C., up to 14 days
Description: as §1

## CO[C@@H]1[C@@H](OC(N)=O)[C@@H](O)[C@H](Oc2ccc3c(O)c(NC(=O)c4ccc(O)c(CC=C(C)C)c4)c(=O)oc3c2C)OC1(C)C [novobiocin]
[1]
  Distribution of positive characters: antibiotic sensitivity, Cluster 1: 100
[2]
  Distribution of positive characters: antibiotic sensitivity, Cluster 2: 82
[3]
  Distribution of positive characters: antibiotic sensitivity, Cluster 3: 33
[4]
  Distribution of positive characters: antibiotic sensitivity, Cluster 4: 100
Strain 931LM.4
  Inhibition of growth by antibiotic: inhibited
Strain 95LM.4
  Inhibition of growth by antibiotic: inhibited
Strain 86M.4
  Inhibition of growth by antibiotic: inhibited
Strain 31M.4
  Inhibition of growth by antibiotic: inhibited
Strain 98Nt.4
  Inhibition of growth by antibiotic: inhibited
Strain 93dLM.4
  Inhibition of growth by antibiotic: inhibited
Strain 103Nt.4
  Inhibition of growth by antibiotic: inhibited

## CC[C@H]1OC(=O)[C@H](C)[C@@H](O[C@H]2C[C@@](C)(OC)[C@@H](O)[C@H](C)O2)[C@H](C)[C@@H](O[C@@H]2O[C@H](C)C[C@H](N(C)C)[C@H]2O)[C@](C)(O)C[C@@H](C)C(=O)[C@H](C)[C@@H](O)[C@]1(C)O [erythromycin]
[1]
  Distribution of positive characters: antibiotic sensitivity, Cluster 1: 86
[2]
  Distribution of positive characters: antibiotic sensitivity, Cluster 2: 73
[3]
  Distribution of positive characters: antibiotic sensitivity, Cluster 3: 100
[4]
  Distribution of positive characters: antibiotic sensitivity, Cluster 4: 100
Strain 931LM.4
  Inhibition of growth by antibiotic: inhibited
Strain 95LM.4
  Inhibition of growth by antibiotic: inhibited
Strain 86M.4
  Inhibition of growth by antibiotic: inhibited
Strain 31M.4
  Inhibition of growth by antibiotic: inhibited
Strain 98Nt.4
  Inhibition of growth by antibiotic: inhibited
Strain 93dLM.4
  Inhibition of growth by antibiotic: inhibited
Strain 103Nt.4
  Inhibition of growth by antibiotic: not inhibited

## [H]/N=C(/N)N[C@H]1[C@H](O)[C@@H](O)[C@H](O[C@@H]2O[C@@H](C)[C@](O)(C=O)[C@H]2O[C@@H]2O[C@@H](CO)[C@H](O)[C@@H](O)[C@@H]2NC)[C@@H](N/C(N)=N\[H])[C@@H]1O [streptomycin]
[1]
  Distribution of positive characters: antibiotic sensitivity, Cluster 1: 0
[2]
  Distribution of positive characters: antibiotic sensitivity, Cluster 2: 18
[3]
  Distribution of positive characters: antibiotic sensitivity, Cluster 3: 67
[4]
  Distribution of positive characters: antibiotic sensitivity, Cluster 4: 0
Strain 931LM.4
  Inhibition of growth by antibiotic: inhibited
Strain 95LM.4
  Inhibition of growth by antibiotic: not inhibited
Strain 86M.4
  Inhibition of growth by antibiotic: not inhibited
Strain 31M.4
  Inhibition of growth by antibiotic: inhibited
Strain 98Nt.4
  Inhibition of growth by antibiotic: not inhibited
Strain 93dLM.4
  Inhibition of growth by antibiotic: not inhibited
Strain 103Nt.4
  Inhibition of growth by antibiotic: inhibited

## CC1(C)S[C@@H]2[C@H](NC(=O)[C@H](N)c3ccccc3)C(=O)N2[C@H]1C(=O)O [ampicillin]
[1]
  Distribution of positive characters: antibiotic sensitivity, Cluster 1: 0
[2]
  Distribution of positive characters: antibiotic sensitivity, Cluster 2: 0
[3]
  Distribution of positive characters: antibiotic sensitivity, Cluster 3: 100
[4]
  Distribution of positive characters: antibiotic sensitivity, Cluster 4: 67
Strain 931LM.4
  Inhibition of growth by antibiotic: inhibited
Strain 95LM.4
  Inhibition of growth by antibiotic: inhibited
Strain 86M.4
  Inhibition of growth by antibiotic: not inhibited
Strain 31M.4
  Inhibition of growth by antibiotic: inhibited
Strain 98Nt.4
  Inhibition of growth by antibiotic: not inhibited
Strain 93dLM.4
  Inhibition of growth by antibiotic: inhibited
Strain 103Nt.4
  Inhibition of growth by antibiotic: inhibited
